Experimental data published in patent US11739098B2 (BRISTOL-MYERS SQUIBB COMPANY, priority 2017, dated 2023).

Experiments:
Format in all cases: cell-based
human TLR9 = molecular target: T1, human TLR9 (Homo sapiens, UniProt Q9NR96); test: TLR9 inhibition reporter assay (HEK-Blue cells, SEAP reporter, ODN2006 stimulation); conditions: HEK-Blue cells overexpressing human TLR9, SEAP reporter, ODN2006 5 nM
T1 construct: host or cells: HEK-Blue cells (HEK293-derived reporter line)
T1 sequence (Q9NR96 26-1032): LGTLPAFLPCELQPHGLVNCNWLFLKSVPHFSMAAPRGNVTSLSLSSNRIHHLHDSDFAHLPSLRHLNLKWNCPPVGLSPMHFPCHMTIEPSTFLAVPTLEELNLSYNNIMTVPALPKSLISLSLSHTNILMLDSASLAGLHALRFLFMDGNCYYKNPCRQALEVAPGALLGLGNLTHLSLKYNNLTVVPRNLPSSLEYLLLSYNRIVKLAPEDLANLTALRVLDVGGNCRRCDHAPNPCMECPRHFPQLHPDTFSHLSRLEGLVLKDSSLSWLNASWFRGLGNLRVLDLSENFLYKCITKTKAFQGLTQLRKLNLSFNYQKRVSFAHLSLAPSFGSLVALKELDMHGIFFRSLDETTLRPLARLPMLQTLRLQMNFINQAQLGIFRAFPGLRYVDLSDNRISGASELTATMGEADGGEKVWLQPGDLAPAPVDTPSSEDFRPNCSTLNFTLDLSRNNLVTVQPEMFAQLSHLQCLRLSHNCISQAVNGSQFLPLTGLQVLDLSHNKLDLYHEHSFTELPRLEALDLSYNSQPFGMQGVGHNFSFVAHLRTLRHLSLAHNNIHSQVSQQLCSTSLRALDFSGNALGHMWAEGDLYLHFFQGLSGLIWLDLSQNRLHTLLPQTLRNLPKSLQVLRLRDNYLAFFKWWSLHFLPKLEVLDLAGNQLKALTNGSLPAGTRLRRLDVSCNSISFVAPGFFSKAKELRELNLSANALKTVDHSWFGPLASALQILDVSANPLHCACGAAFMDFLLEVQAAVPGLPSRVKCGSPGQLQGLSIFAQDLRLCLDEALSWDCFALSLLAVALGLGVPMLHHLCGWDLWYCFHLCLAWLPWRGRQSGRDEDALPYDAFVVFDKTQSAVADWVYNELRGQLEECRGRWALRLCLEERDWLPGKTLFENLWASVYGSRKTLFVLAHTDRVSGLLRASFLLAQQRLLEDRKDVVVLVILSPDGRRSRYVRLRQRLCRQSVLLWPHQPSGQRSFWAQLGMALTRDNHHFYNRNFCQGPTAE
Procedure, shortened: (§1)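 Cells seeded per well (15000 TLR7, 20,000 TLR8, 25,000 TLR9); compound added over 0.05 nM–50 μM for 30 min at room temperature; agonist added (TLR7 gardiquimod 7.5 μM, TLR8 R848 15.9 μM, TLR9 ODN2006 5 nM); 22 h at 37 °C; SEAP measured; percent inhibition calculated.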

human TLR8 = molecular target: T2, human TLR8 (Homo sapiens, UniProt Q9NR97); test: TLR8 inhibition reporter assay (HEK-Blue cells, SEAP reporter, R848 stimulation); conditions: HEK-Blue cells overexpressing human TLR8, SEAP reporter, R848 15.9 μM
T2 construct: host or cells: HEK-Blue cells (HEK293-derived reporter line)
T2 sequence (Q9NR97 27-1041): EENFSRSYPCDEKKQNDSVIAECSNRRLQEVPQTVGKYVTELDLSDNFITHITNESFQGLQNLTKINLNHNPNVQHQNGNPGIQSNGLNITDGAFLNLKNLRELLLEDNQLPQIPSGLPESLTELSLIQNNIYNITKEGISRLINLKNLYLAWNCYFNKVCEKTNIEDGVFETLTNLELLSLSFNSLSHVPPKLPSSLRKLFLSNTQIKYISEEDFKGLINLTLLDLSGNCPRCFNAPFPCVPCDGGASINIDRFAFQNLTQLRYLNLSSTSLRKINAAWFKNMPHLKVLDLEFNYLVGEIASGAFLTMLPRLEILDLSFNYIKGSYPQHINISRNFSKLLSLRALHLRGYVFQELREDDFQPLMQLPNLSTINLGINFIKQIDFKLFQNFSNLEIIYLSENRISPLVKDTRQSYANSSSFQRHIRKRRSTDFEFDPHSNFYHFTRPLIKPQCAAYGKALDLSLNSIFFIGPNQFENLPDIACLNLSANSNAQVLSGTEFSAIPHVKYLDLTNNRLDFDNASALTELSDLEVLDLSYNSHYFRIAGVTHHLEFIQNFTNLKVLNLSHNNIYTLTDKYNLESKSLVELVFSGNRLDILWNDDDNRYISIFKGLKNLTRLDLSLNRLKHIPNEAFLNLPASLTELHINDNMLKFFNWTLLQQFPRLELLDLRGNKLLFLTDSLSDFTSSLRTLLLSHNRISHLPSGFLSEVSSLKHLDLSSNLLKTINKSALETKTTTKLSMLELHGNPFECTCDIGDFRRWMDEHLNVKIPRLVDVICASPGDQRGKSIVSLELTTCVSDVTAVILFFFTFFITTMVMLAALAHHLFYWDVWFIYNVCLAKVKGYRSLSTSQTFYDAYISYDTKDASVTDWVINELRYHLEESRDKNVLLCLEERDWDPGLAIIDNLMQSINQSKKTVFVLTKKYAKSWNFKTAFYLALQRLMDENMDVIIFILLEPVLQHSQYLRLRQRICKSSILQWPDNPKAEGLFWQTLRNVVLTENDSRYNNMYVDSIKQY
Procedure, shortened: as §1

human TLR7 = molecular target: T3, human TLR7 (Homo sapiens, UniProt Q9NYK1); test: TLR7 inhibition reporter assay (HEK-Blue cells, SEAP reporter, gardiquimod stimulation); conditions: HEK-Blue cells overexpressing human TLR7, SEAP reporter, gardiquimod 7.5 μM
T3 construct: host or cells: HEK-Blue cells (HEK293-derived reporter line)
T3 sequence (Q9NYK1 27-1049): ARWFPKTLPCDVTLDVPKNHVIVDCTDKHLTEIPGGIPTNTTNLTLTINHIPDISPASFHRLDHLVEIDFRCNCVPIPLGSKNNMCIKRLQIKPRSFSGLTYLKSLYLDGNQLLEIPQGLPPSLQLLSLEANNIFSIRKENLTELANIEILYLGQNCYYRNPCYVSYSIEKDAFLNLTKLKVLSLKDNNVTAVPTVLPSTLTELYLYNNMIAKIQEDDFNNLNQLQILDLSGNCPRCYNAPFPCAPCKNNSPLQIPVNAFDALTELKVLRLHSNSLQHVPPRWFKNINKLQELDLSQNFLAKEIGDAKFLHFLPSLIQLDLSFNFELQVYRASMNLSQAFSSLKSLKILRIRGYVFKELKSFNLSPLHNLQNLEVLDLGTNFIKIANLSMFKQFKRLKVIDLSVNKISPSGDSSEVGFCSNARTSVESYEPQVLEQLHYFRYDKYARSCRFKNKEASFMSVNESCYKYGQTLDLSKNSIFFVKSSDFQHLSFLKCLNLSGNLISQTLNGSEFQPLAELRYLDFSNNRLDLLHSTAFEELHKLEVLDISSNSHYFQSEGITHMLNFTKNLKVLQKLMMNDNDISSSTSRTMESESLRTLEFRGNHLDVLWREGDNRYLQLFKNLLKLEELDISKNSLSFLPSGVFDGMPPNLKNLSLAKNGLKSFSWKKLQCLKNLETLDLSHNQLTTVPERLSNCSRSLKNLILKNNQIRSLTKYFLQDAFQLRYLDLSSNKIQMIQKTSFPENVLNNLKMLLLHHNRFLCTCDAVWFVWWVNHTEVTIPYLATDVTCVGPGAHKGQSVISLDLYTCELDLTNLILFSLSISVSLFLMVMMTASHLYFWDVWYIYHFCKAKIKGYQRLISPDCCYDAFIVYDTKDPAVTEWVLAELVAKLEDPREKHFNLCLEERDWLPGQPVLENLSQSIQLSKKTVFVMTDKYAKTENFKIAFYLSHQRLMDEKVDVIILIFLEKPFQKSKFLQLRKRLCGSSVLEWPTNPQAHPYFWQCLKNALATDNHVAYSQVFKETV
Procedure, shortened: as §1

Row | IC50 (human TLR9) | IC50 (human TLR8) | IC50 (human TLR7) | Structure (SMILES)
1 | 1000 to 50000 nM | 1000 to 50000 nM | > 50000 nM | COC(=O)c1c(-c2ccnc3[nH]ncc23)[nH]c2ccc(C3CCNCC3)cc12 [Example 174, methyl 5-(piperidin-4-yl)-2-(1H-pyrazolo[3,4-b]pyridin-4-yl)-1H-indole-3-carboxylate]
2 | 100 to 1000 nM | 100 to 1000 nM | 100 to 1000 nM | COc1cc(-c2[nH]c3ccc(C4CCN(CC(=O)N(C)C)CC4)cc3c2C(C)C)cc2nccn12 [Example 357, 2-(4-(3-isopropyl-2-(5-methoxyimidazo[1,2-a]pyridin-7-yl)-1H-indol-5-yl)piperidin-1-yl)-N,N-dimethylacetamide]
3 | 100 to 1000 nM | < 100 nM | < 100 nM | CCc1c(-c2ccnc3[nH]ccc23)[nH]c2ccc(C3CCN(C4CC(C)(C)NC(C)(C)C4)CC3)cc12 [Example 838, 4-(3-ethyl-5-(2′,2′,6′,6′-tetramethyl-[1,4′-bipiperidin]-4-yl)-1H-indol-2-yl)-1H-pyrrolo[2,3-b]pyridine]
4 | 1000 to 50000 nM | < 100 nM | < 100 nM | Cc1cc(-c2[nH]c3ccc(C4CCN(C(=O)CCN(C)C5CC5)CC4)cc3c2C(C)C)cn2nnnc12 [Example 623, 3-(cyclopropyl(methyl)amino)-1-(4-(3-isopropyl-2-(8-methyltetrazolo[1,5-a]pyridin-6-yl)-1H-indol-5-yl)piperidin-1-yl)propan-1-one]
5 | 1000 to 50000 nM | < 100 nM | < 100 nM | Cc1cc(-c2[nH]c3ccc(C4CCN(CC(=O)N(C)C)CC4)cc3c2C(C)C)nc2scnc12 [Example 407, 2-(4-(3-isopropyl-2-(7-methylthiazolo[5,4-b]pyridin-5-yl)-1H-indol-5-yl)piperidin-1-yl)-N,N-dimethylacetamide]
6 | 100 to 1000 nM | 100 to 1000 nM | < 100 nM | Cc1nc2cc(-c3[nH]c4ccc(C5CCN(CC(C)(C)O)CC5)cc4c3C(C)C)ccn2n1 [Example 753, 1-(4-(3-isopropyl-2-(2-methyl-[1,2,4]triazolo[1,5-a]pyridin-7-yl)-1H-indol-5-yl)piperidin-1-yl)-2-methylpropan-2-ol]
7 | 1000 to 50000 nM | 100 to 1000 nM | < 100 nM | Cc1ccnc2[nH]cc(-c3[nH]c4ccc(C5CCN(C(=O)CN(C)C)CC5)cc4c3C(C)C)c12 [Example 458, 2-(dimethylamino)-1-(4-(3-isopropyl-2-(4-methyl-1H-pyrrolo[2,3-b]pyridin-3-yl)-1H-indol-5-yl)piperidin-1-yl)ethan-1-one]
8 | 100 to 1000 nM | 100 to 1000 nM | < 100 nM | CC(C)c1c(-c2cc(C(C)(C)O)c3nccn3c2)[nH]c2ccc(C3CCNCC3)cc12 [Example 134, 2-(6-(3-isopropyl-5-(piperidin-4-yl)-1H-indol-2-yl)imidazo[1,2-a]pyridin-8-yl)propan-2-ol]
9 | 1000 to 50000 nM | < 100 nM | < 100 nM | CCc1c(-c2ccnc3[nH]ncc23)[nH]c2ccc(C3CCNCC3F)cc12 (stereo not drawn) [Example 177, 4-(3-ethyl-5-(3-fluoropiperidin-4-yl)-1H-indol-2-yl)-1H-pyrazolo[3,4-b]pyridine]
10 | 1000 to 50000 nM | 100 to 1000 nM | < 100 nM | Cc1cn2cc(-c3[nH]c4ccc(C5CCN(Cc6cnn(C)c6)CC5)cc4c3C(C)C)cc(C(F)(F)F)c2n1 [Example 934, 6-(3-isopropyl-5-(1-((1-methyl-1H-pyrazol-4-yl)methyl)piperidin-4-yl)-1H-indol-2-yl)-2-methyl-8-(trifluoromethyl)imidazo[1,2-a]pyridine]
11 | 100 to 1000 nM | < 100 nM | < 100 nM | CNCC(=O)N1CCC(c2ccc3[nH]c(-c4cc(OC)c5nccn5c4)c(C(C)C)c3c2)CC1 [Example 559, 1-(4-(3-isopropyl-2-(8-methoxyimidazo[1,2-a]pyridin-6-yl)-1H-indol-5-yl)piperidin-1-yl)-2-(methylamino)ethan-1-one]
